Results on 1 compound are retold here after patent publication US12350475B2 (SUN PHARMACEUTICAL INDUSTRIES LIMITED, priority 2020, dated 2025).

Structures can show the parent of a compound that is named as a salt.

A short description of data set [1]: pharmacokinetics of octreotide after subcutaneous injection. The source says:
(§1) For patients with acromegaly, there may be a different pharmacokinetic profile.

Data set [2] in a line: distribution of octreotide in blood (erythrocytes, plasma binding).
Excerpt: as §1

Data set [3] can be described thus: pharmacokinetics of octreotide after subcutaneous dosing in patients with acromegaly.
Excerpt: as §1

Consider `C[C@@H](O)[C@@H]1NC(=O)[C@H](CCCCN)NC(=O)[C@@H](Cc2c[nH]c3ccccc23)NC(=O)[C@H](Cc2ccccc2)NC(=O)[C@@H](NC(=O)[C@H](N)Cc2ccccc2)CSSC[C@@H](C(=O)N[C@H](CO)[C@@H](C)O)NC1=O` (relative stereo) [octreotide, L-cysteinamide, D-phenylalanyl-L-cysteinyl-L-phenylalanyl-D-tryptophyl-L-lysyl-L-threonyl-N-[2-hydroxy-1-(hydroxymethyl)propyl]-, cyclic (2#7)-disulfide; [R—(R*, R*)] acetate salt], for which the “absorption from the injection site” value in data set [1] (after subcutaneous injection) is “absorbed completely”. In data set [1] (human, plasma, subcutaneous), this compound came in with a Vd of about 13.6 L and a clearance of 117 to 167 mL/min. Further, the “dose proportionality of peak concentrations and area under the curve values” in data set [1] (subcutaneous single doses up to 500 μg and multiple doses up to 500 μg three times a day (1,500 μg/day)) is “dose proportional”. Moreover, in data set [1] (subcutaneous, dose of 100 μg), the peak concentration entry is recorded as “about 5.2 ng/mL” and the “time to peak concentration after dosing” value was determined as 0.4 h. Further, the “bound in the plasma” value in data set [2] (concentration-independent manner) was “about 65%”. Moreover, the “distribution into the erythrocytes” value in data set [2] (in blood) is “negligible”. In data set [3] (human, in vivo, subcutaneous), the Vd was about 21.6 L and the clearance is about 300 mL/min. Moreover, the “time to mean peak concentration after subcutaneous dosing” value in data set [3] (patients with acromegaly, 100 μg dose) is reported as “about 0.7 hours”. In data set [3] (patients with acromegaly, subcutaneous, 100 μg dose), the mean peak concentration result is “about 2.8 ng/mL”.
